The values that follow come from article PMC6114082, “Synthesis of aminophenylhydroxamate and aminobenzylhydroxamate derivatives and in vitro screening for antiparasitic and histone deacetylase inhibitory activity” (International Journal for Parasitology: Drugs and Drug …, 2018).

The IC50 is the concentration that gives 50% inhibition.

Data set [1] relates to T. brucei MHOM/CI/81/DAL967. Nature of the data set: Antitrypanosomal activity, T. brucei. The format is cell-based, Trypanosoma brucei gambiense. As to conditions: Trypanosoma brucei. The protocol:
(§1) The antitrypanosomatid activity of the compounds was ascertained as follows. Leishmania parasites were cultured at 26 °C in SDM-79 medium supplemented with 10% fetal calf serum (FCS), and the antileishmanial activity was determined according to a previously published protocol for LUC-expressing and wild-type Leishmania ([Sereno et al., 2001], [Abbassi et al., 2008]). Trypanosoma brucei gambiense were grown at 26 °C in Cunningham's medium supplemented with 10% FCS, 2 mM GlutaMAX-1 (Gibco, USA), 100 U/ml penicillin, 100 μg/ml streptomycin and […] bovine hemin. The epimastigote form of Trypanosoma cruzi (strain Y cl7 scl2, lineage Tc2) (kindly provided by Philippe Truc and Christian Barnabé, UMR 177 IRD-CIRAD InterTryp, Montpellier, France) were grown at 26 °C in liver infusion tryptose (LIT) medium, supplemented with 10% FCS, 2 mM GlutaMAX™-I, 100 U/ml penicillin, 100 μg/ml streptomycin and bovine hemin (20 mg/l) (Gibco). The antitrypanosomatids activity was determined using a protocol that was initialy set up for wild-type Leishmania ([Abbassi et al., 2008]). To assess the drug activity on Toxoplasma gondii, confluent human foreskin fibroblast (HFF) monolayers were infected with YFP-type I Rh kindly provided by B. Striepen, see ([Striepen et al., 1998]) or Tomato-type II Pru kindly provided by N. Blanchard (Toulouse), expressing parasites at 5 × 10^4 per well, which were then centrifuged for 30 s at 1300 rpm and incubated for 30 min in a water bath at 37 °C to allow invasion. The wells were then washed three times with PBS to eliminate extracellular parasites, and the drugs were added at various concentrations ranging from 1 to 50 μM. After incubation for 24 h at 37 °C in a humidified atmosphere containing 5% CO2, the cells were fixed in 2.5% methanol-free formaldehyde (Tebu-bio)/PBS for 30 min at room temperature. Nuclei were stained with Hoechst 33258 (2 μg/ml, Molecular Probes) for 20 min and then washed three times with water for 10 min each time. The number of infected cells, i.e., cells harboring a parasitophorous vacuole, and the number of parasites per vacuole were determined using an Olympus ScanR microscope ( × 20 objective) and ScanR software. The parasitic index in % compared to the control was calculated as follows: (PI=((number of parasite/100 cells in treated wells) x (% of infected macrophage in treated well)/(number of parasite/100 cells in untreated wells) x (% of infected macrophage in untreated wells))*100).

For another data set, the target named is T1, HDAC 6 (Homo sapiens, UniProt Q9UBN7).
T1 construct: purchased Active Motif, Belgium
T1 sequence (Q9UBN7 1-1215): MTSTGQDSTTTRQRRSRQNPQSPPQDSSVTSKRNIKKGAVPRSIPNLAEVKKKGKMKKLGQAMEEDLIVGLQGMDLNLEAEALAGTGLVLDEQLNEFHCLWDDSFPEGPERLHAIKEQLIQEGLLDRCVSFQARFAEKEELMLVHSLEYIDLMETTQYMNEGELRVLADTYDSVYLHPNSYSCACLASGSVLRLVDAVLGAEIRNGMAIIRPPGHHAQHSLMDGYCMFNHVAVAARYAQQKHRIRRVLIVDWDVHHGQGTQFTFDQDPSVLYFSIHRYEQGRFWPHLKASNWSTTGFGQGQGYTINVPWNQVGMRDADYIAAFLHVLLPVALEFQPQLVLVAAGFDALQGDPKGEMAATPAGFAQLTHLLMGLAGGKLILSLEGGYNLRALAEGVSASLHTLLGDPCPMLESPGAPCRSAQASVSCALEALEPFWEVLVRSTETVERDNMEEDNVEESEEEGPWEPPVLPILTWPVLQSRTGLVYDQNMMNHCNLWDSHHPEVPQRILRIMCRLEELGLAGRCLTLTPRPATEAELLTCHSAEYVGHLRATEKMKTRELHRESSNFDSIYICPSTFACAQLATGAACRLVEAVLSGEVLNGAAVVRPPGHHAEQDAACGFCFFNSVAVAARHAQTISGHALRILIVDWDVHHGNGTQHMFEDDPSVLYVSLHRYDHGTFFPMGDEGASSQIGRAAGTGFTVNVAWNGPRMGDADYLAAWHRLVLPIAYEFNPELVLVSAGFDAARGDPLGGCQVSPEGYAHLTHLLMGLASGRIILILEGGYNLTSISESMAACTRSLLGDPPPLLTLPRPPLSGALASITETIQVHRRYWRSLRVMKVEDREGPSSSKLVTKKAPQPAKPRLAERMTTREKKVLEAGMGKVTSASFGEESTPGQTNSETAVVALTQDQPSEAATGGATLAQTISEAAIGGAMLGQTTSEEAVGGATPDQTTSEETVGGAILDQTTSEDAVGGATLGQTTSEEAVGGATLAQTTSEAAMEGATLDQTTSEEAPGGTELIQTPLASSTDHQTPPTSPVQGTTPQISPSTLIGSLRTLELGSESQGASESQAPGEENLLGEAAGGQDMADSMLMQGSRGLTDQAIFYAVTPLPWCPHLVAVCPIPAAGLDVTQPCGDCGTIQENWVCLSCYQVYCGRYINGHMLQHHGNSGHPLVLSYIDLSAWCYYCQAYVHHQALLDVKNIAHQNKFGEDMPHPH
Nature of the data set: Fluorometric HDAC assay, recombinant HDAC6. Type of data set: biochemical. Here is the method:
(§2) The HDACi effect against HeLa nuclear extracts and recombinant proteins were measured using a fluorometric HDAC assay kit (Active Motif, Belgium) according to the manufacturer's instructions. […] A negative control containing trichostatin A at a final concentration of 2 μM was analyzed for each independent experiment.

Data set [2] deals with L. tropica MHOM/BR/73/5-ASKM. Nature of the data set: Antileishmanial activity, L. tropica promastigotes. Type of data set: cell-based, Leishmania tropica. As to conditions: Leishmania tropica. The protocol: as §1
Data set [3] can be described thus: Cytotoxicity, MTT assay, THP-1. The format is cell-based, human. As to conditions: human, THP-1 cells (monocytic cell line); MTT assay. The protocol: (§3) The human monocytic cell line THP-1 was cultivated in RPMI medium supplemented with 10% FCS, 2 mM GlutaMAX, 100 U/ml penicillin, and 100 μg/ml streptomycin. HFF cells were cultivated in Dulbecco's modified Eagle's medium (DMEM) with Earle's salts containing 10% FCS, 10 mM HEPES, 1 mM sodium pyruvate, 2 mM GlutaMAX, 100 U/ml penicillin, and 100 μg/ml streptomycin. The THP-1 and HFF cells were maintained in a 5% CO2 incubator at 37 °C. Cytotoxicity was evaluated via the MTT assay, and the IC50 values were calculated using Prism software (Prism 4 for Mac OS X, version 5.0b, December, 2008).
Background: Tetrazolium dyes change colour on reduction, which living cells bring about.

For the next data set, the system named is THP-1 cells. Briefly: Cytotoxicity, MTT assay, THP-1. Type of data set: cell-based, human. Here is the method:
as §3

For data set [4], the system named is HeLa nuclear extract (HDAC 1, 2, 6, and 8 predominant). Briefly: Fluorometric HDAC assay, HeLa nuclear extract. The format is biochemical. Here is the method:
as §2

Turning to `COc1cccc(CC(=O)Nc2ccc(C(=O)NO)cc2)c1` [Compound 363, N-hydroxy-4-[2-(3-methoxyphenyl)acetamido]benzamide], the half-maximal inhibitory concentration (IC50) in data set [1] is more than 60000 nM; at HDAC 6 (recombinant protein, read-out: rHDAC 6 IC50), 45 ± 15 nM; in data set [2], more than 60000 nM; in data set [3], 3600 ± 500 nM; in data set [4] (HeLa nuclear extract, read-out: HDACi HeLa IC50), 85 ± 35 nM. Further, the “Fold, HDAC 6” value at HDAC 6 (363 as compared to SAHA) was 34.9. In the data set on THP-1 cells, the “selectivity index, THP-1 cells vs T. gondii” value stood at 10. The “HDACi effect, inhibition at single concentration” value in data set [4] (1.0 μM, screen on HeLa nuclear extract and recombinant HDAC1, 3, 6, 8 (Fig. 2A)) was found to be 90%.
